Measurements: patent publication US20250042914A1, “PIKFYVE KINASE INHIBITOR” (HANMI PHARM. CO., LTD., priority 2021, published 2025)
Where a name gives a salt, the structure may show the parent alone.

Each molecule was assayed against human-derived PIKfyve kinase (Homo sapiens (Human), UniProt Q9Y2I7) (assay: PIKfyve enzyme inhibition assay (ADP-Glo)). Details: PIKfyve enzyme inhibitory assay; PI(3)P 10 μm, ATP 2 μm, 60 minutes.
Format: biochemical
Description: For each of the compounds prepared in Examples 1 to 33, the PIKfyve enzyme inhibitory activity was measured by using a QS S Assis PIKFYVE (PIP5K3)_ADP-Glo™ Kit (Cat. #11-118) made by Carna Bioscience. 5 μL of each of human-derived PIKfyve kinase, PI(3)P, and ATP solution was added to a 384-well plate (such that final concentrations of each solution are 375 ng/ml, 10 μm, and 2 μm, respectively). The compound to be evaluated underwent serial dilution according to the set concentrations, and 5 μL of the diluted solution was added to each well and caused a reaction for 60 minutes. MgCl2 was mixed in ADP-Glo™ solution (Promega, Cat. #V9102) to a final concentration of 100 mM, and 20 μL of the mixed solution was added to each well and caused a reaction at room temperature for 40 minutes. 40 μL of kinase detection solution was added to each well and caused a reaction at room temperature for 40 minutes. Then, the luminescence signals were detected by using a Synergy™ NEO microplate analyzer. Well to which no enzyme was added were used as a negative control, whereas wells to which no drug was added were used as a positive control, so as to calculate the enzyme inhibitory ability (%) of drugs. The 50% inhibitor concentration (IC50) values were calculated by using a GraphPad Prism software.
In Table 1, when the case where the IC50 value was 50 nM or less was indicated as A, the case where the IC50 value was greater than 50 nM but equal to or less than 100 nM was indicated as B, and the case where the IC50 value was greater than 100 nM was indicated as C.

human-derived PIKfyve kinase, sequence (Q9Y2I7 whole entry): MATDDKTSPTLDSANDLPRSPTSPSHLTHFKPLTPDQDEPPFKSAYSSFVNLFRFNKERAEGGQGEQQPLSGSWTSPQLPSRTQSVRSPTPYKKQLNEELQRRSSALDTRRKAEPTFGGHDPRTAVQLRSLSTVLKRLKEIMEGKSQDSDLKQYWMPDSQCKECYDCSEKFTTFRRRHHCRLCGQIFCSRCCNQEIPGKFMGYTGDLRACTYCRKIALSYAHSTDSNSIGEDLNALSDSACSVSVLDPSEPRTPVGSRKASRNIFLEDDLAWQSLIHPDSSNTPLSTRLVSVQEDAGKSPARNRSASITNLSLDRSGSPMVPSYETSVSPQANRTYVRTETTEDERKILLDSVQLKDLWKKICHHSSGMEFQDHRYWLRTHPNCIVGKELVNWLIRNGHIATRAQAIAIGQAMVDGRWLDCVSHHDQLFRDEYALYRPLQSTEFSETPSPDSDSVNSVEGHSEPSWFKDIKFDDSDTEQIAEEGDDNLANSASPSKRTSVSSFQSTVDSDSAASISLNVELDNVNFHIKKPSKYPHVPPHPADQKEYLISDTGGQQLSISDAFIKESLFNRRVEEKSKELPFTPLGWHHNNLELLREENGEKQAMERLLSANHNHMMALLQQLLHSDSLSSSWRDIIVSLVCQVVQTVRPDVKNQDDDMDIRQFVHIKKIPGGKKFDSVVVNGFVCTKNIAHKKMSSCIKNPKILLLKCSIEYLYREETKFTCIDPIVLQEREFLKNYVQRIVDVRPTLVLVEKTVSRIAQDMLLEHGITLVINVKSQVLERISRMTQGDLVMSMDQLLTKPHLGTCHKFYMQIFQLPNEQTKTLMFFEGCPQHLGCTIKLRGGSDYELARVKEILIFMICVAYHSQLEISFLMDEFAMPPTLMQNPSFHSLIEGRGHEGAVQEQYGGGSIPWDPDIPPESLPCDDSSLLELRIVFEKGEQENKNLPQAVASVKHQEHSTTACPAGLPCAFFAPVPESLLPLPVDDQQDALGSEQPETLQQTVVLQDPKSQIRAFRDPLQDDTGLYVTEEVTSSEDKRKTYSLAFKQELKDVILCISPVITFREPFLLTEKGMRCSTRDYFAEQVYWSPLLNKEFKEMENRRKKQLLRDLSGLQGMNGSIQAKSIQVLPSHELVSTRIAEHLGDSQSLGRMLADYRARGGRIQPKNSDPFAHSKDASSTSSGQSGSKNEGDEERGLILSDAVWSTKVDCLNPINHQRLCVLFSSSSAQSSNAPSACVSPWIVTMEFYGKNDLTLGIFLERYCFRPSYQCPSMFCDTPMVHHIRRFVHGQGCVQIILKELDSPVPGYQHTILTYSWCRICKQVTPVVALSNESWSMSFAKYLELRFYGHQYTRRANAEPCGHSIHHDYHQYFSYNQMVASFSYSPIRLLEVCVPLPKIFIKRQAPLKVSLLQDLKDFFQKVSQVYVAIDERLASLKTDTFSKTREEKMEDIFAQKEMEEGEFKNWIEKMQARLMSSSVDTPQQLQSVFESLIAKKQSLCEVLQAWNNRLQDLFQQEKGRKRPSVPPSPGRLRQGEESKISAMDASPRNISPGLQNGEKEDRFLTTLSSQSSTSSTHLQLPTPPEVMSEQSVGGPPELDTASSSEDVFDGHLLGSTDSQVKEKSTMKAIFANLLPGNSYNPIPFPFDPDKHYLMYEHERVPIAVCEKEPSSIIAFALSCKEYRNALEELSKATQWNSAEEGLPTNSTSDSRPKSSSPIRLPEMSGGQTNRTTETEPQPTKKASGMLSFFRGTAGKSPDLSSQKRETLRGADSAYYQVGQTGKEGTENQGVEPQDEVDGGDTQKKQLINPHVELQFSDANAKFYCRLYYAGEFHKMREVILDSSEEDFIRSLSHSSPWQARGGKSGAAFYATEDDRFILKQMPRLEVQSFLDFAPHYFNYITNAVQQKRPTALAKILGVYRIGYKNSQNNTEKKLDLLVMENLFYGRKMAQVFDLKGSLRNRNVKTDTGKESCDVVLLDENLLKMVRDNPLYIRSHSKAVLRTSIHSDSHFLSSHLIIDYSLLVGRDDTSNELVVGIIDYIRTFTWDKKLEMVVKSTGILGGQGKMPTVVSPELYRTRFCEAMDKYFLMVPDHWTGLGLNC

| SMILES | IC50 |
| --- | --- |
| O=C(Nc1cccc(-c2nc(N3CCOCC3)c3sc(-c4ccncc4)cc3n2)c1)c1ccncc1 [Example 1, N-(3-(4-morpholino-6-(pyridin-4-yl)thieno[3,2-d]pyrimidin-2-yl)phenyl)isonicotinamide] | ≤ 50 nM |
| O=C(Nc1cccc(-c2nc(N3CCOCC3)c3sc(-c4cccnc4)cc3n2)c1)c1ccncc1 [Example 2, N-(3-(4-morpholino-6-(pyridin-3-yl)thieno[3,2-d]pyrimidin-2-yl)phenyl)isonicotinamide] | ≤ 50 nM |
| O=C(Nc1cccc(-c2nc(N3CCOCC3)c3sc(-c4cnco4)cc3n2)c1)c1ccncc1 [Example 3, N-(3-(4-morpholino-6-(oxazol-5-yl)thieno[3,2-d]pyrimidin-2-yl)phenyl)isonicotinamide] | ≤ 50 nM |
| O=C(Nc1cccc(-c2nc(N3CCOCC3)c3sc(-c4ccncc4)cc3n2)c1)c1cccnc1 [Example 4, N-(3-(4-morpholino-6-(pyridin-4-yl)thieno[3,2-d]pyrimidin-2-yl)phenyl)nicotinamide] | ≤ 50 nM |
| O=C(Nc1cccc(-c2nc(N3CCOCC3)c3sc(-c4cccnc4)cc3n2)c1)c1cccnc1 [Example 5, N-(3-(4-morpholino-6-(pyridin-3-yl)thieno[3,2-d]pyrimidin-2-yl)phenyl)nicotinamide] | ≤ 50 nM |
| Nc1ccc(-c2cc3nc(-c4cccc(NC(=O)c5cccnc5)c4)nc(N4CCOCC4)c3s2)cc1 [Example 6, N-(3-(6-(4-aminophenyl)-4-morpholinothieno[3,2-d]pyrimidin-2-yl)phenyl)nicotinamide hydrochloride] | ≤ 50 nM |
| O=C(Nc1cccc(-c2nc(N3CCOCC3)c3sc(-c4cnco4)cc3n2)c1)c1cccnc1 [Example 7, N-(3-(4-morpholino-6-(oxazol-5-yl)thieno[3,2-d]pyrimidin-2-yl)phenyl)nicotinamide] | ≤ 50 nM |
| O=C(Nc1cccc(-c2nc(N3CCOCC3)c3sc(-c4ccnc5[nH]ccc45)cc3n2)c1)c1cccnc1 [Example 9, N-(3-(4-morpholino-6-(1H-pyrrolo[2,3-b]pyridin-4-yl)thieno[3,2-d]pyrimidin-2-yl)phenyl)nicotinamide] | ≤ 50 nM |
| O=C(Nc1cccc(-c2nc(N3CCOCC3)c3sc(-c4ccnc5[nH]ncc45)cc3n2)c1)c1cccnc1 [Example 10, N-(3-(4-morpholino-6-(1H-pyrazolo[3,4-b]pyridin-4-yl)thieno[3,2-d]pyrimidin-2-yl)phenyl)nicotinamide] | 50 to 100 nM |
| O=C(Nc1cccc(-c2nc(N3CCOCC3)c3sc(-c4cncc5[nH]ccc45)cc3n2)c1)c1cccnc1 [Example 11, N-(3-(4-morpholino-6-(1H-pyrrolo[2,3-c]pyridin-4-yl)thieno[3,2-d]pyrimidin-2-yl)phenyl)nicotinamide] | > 100 nM |
| O=C(Nc1cccc(-c2nc(N3CCOCC3)c3sc(-c4cccnc4)cc3n2)c1)c1cocn1 [Example 12, N-(3-(4-morpholino-6-(pyridin-3-yl)thieno[3,2-d]pyrimidin-2-yl)phenyl) oxazole-4-carboxamide] | ≤ 50 nM |
| O=C(Nc1cccc(-c2nc(N3CCOCC3)c3sc(-c4cccnc4)cc3n2)c1)c1cnco1 [Example 13, N-(3-(4-morpholino-6-(pyridin-3-yl)thieno[3,2-d]pyrimidin-2-yl)phenyl) oxazole-5-carboxamide] | ≤ 50 nM |
| O=C(Nc1cccc(-c2nc(N3CCOCC3)c3sc(-c4cccnc4)cc3n2)c1)c1ncco1 [Example 14, N-(3-(4-morpholino-6-(pyridin-3-yl)thieno[3,2-d]pyrimidin-2-yl)phenyl) oxazole-2-carboxamide] | ≤ 50 nM |
| Cc1ncc(C(=O)Nc2cccc(-c3nc(N4CCOCC4)c4sc(-c5cccnc5)cc4n3)c2)o1 [Example 15, 2-methyl-N-(3-(4-morpholino-6-(pyridin-3-yl)thieno[3,2-d]pyrimidin-2-yl)phenyl) oxazole-5-carboxamide] | 50 to 100 nM |
| Cc1ncoc1C(=O)Nc1cccc(-c2nc(N3CCOCC3)c3sc(-c4cccnc4)cc3n2)c1 [Example 16, 4-methyl-N-(3-(4-morpholino-6-(pyridin-3-yl)thieno[3,2-d]pyrimidin-2-yl)phenyl) oxazole-5-carboxamide] | ≤ 50 nM |
| Cc1nc(C)c(C(=O)Nc2cccc(-c3nc(N4CCOCC4)c4sc(-c5cccnc5)cc4n3)c2)o1 [Example 17, 2,4-dimethyl-N-(3-(4-morpholino-6-(pyridin-3-yl)thieno[3,2-d]pyrimidin-2-yl)phenyl) oxazole-5-carboxamide] | ≤ 50 nM |

| SMILES | IC50 |
| --- | --- |
| O=C(Nc1cccc(-c2nc(N3CCOCC3)c3sc(-c4cccnc4)cc3n2)c1)c1cscn1 [Example 18, N-(3-(4-morpholino-6-(pyridin-3-yl)thieno[3,2-d]pyrimidin-2-yl)phenyl) thiazole-4-carboxamide] | > 100 nM |
| O=C(Nc1cccc(-c2nc(N3CCOCC3)c3sc(-c4cccnc4)cc3n2)c1)c1cncs1 [Example 19, N-(3-(4-morpholino-6-(pyridin-3-yl)thieno[3,2-d]pyrimidin-2-yl)phenyl) thiazole-5-carboxamide] | ≤ 50 nM |
| O=C(Nc1cccc(-c2nc(N3CCOCC3)c3sc(-c4cccnc4)cc3n2)c1)c1nccs1 [Example 20, N-(3-(4-morpholino-6-(pyridin-3-yl)thieno[3,2-d]pyrimidin-2-yl)phenyl) thiazole-2-carboxamide] | > 100 nM |
| Cc1ncc(C(=O)Nc2cccc(-c3nc(N4CCOCC4)c4sc(-c5cccnc5)cc4n3)c2)s1 [Example 21, 2-methyl-N-(3-(4-morpholino-6-(pyridin-3-yl)thieno[3,2-d]pyrimidin-2-yl)phenyl) thiazole-5-carboxamide] | ≤ 50 nM |
| Cc1ncsc1C(=O)Nc1cccc(-c2nc(N3CCOCC3)c3sc(-c4cccnc4)cc3n2)c1 [Example 22, 4-methyl-N-(3-(4-morpholino-6-(pyridin-3-yl)thieno[3,2-d]pyrimidin-2-yl)phenyl) thiazole-5-carboxamide] | ≤ 50 nM |
| Cc1nc(C)c(C(=O)Nc2cccc(-c3nc(N4CCOCC4)c4sc(-c5cccnc5)cc4n3)c2)s1 [Example 23, 2,4-dimethyl-N-(3-(4-morpholino-6-(pyridin-3-yl)thieno[3,2-d]pyrimidin-2-yl)phenyl) thiazole-5-carboxamide] | 50 to 100 nM |
| O=C(Nc1cccc(-c2nc(N3CCOCC3)c3sc(-c4cccnc4)cc3n2)c1)C1CCCNC1 (centres unmarked) [Example 24, N-(3-(4-morpholino-6-(pyridin-3-yl)thieno[3,2-d]pyrimidin-2-yl)phenyl)piperidine-3-carboxamide] | ≤ 50 nM |
| O=C(Nc1cccc(-c2nc(N3CCOCC3)c3sc(-c4cccnc4)cc3n2)c1)C1CCNCC1 [Example 25, N-(3-(4-morpholino-6-(pyridin-3-yl)thieno[3,2-d]pyrimidin-2-yl)phenyl)piperidine-4-carboxamide] | ≤ 50 nM |
| O=C(Nc1cccc(-c2nc(N3CCOCC3)c3sc(-c4cccnc4)cc3n2)c1)C1CCN(CCO)CC1 [Example 26, 1-(2-hydroxyethyl)-N-(3-(4-morpholino-6-(pyridin-3-yl)thieno[3,2-d]pyrimidin-2-yl)phenyl)piperidine-4-carboxamide] | 50 to 100 nM |
| COCCN1CCC(C(=O)Nc2cccc(-c3nc(N4CCOCC4)c4sc(-c5cccnc5)cc4n3)c2)CC1 [Example 27, 1-(2-methoxyethyl)-N-(3-(4-morpholino-6-(pyridin-3-yl)thieno[3,2-d]pyrimidin-2-yl)phenyl)piperidine-4-carboxamide] | 50 to 100 nM |
| O=CN1CCC(C(=O)Nc2cccc(-c3nc(N4CCOCC4)c4sc(-c5cccnc5)cc4n3)c2)CC1 [Example 28, 1-formyl-N-(3-(4-morpholino-6-(pyridin-3-yl)thieno[3,2-d]pyrimidin-2-yl)phenyl)piperidine-4-carboxamide] | > 100 nM |
| CC(=O)N1CCC(C(=O)Nc2cccc(-c3nc(N4CCOCC4)c4sc(-c5cccnc5)cc4n3)c2)CC1 [Example 29, 1-acetyl-N-(3-(4-morpholino-6-(pyridin-3-yl)thieno[3,2-d]pyrimidin-2-yl)phenyl)piperidine-4-carboxamide] | > 100 nM |
| COC(=O)N1CCC(C(=O)Nc2cccc(-c3nc(N4CCOCC4)c4sc(-c5cccnc5)cc4n3)c2)CC1 [Example 30, methyl 4-((3-(4-morpholino-6-(pyridin-3-yl)thieno[3,2-d]pyrimidin-2-yl)phenyl)carbamoyl)piperidine-1-carboxylate] | > 100 nM |
| CCOC(=O)N1CCC(C(=O)Nc2cccc(-c3nc(N4CCOCC4)c4sc(-c5cccnc5)cc4n3)c2)CC1 [Example 31, ethyl 4-((3-(4-morpholino-6-(pyridin-3-yl)thieno[3,2-d]pyrimidin-2-yl)phenyl)carbamoyl)piperidine-1-carboxylate] | ≤ 50 nM |
| O=C(Nc1cccc(-c2nc(N3CCOCC3)c3sc(-c4cccnc4)cc3n2)c1)[C@H]1CC[C@@H](O)CC1 [Example 32, (1s,4s)-4-hydroxy-N-(3-(4-morpholino-6-(pyridin-3-yl)thieno[3,2-d]pyrimidin-2-yl)phenyl)cyclohexane-1-carboxamide] | ≤ 50 nM |
| O=C(Nc1cccc(-c2nc(N3CCOCC3)c3sc(-c4cnco4)cc3n2)c1)c1cocn1 [Example 33, N-(3-(4-morpholino-6-(oxazol-5-yl)thieno[3,2-d]pyrimidin-2-yl)phenyl)oxazole-4-carboxamide] | ≤ 50 nM |
